Consider 8 molecules from patent publication US4942245A, “Benzimidazole Derivatives” (Kyorin Pharmaceutical Co., Ltd., priority 1987, dated 1990).

In one assay the test system is leukotriene D4. Nature of the assay: Leukotriene D4-induced bronchoconstriction (modified Konzett-Rossler, transpulmonary pressure) in anesthetized guinea pig, oral administration. Format: in vivo, male Hartley guinea pig. Conditions: p.o., 2 hours before leukotriene D4 (3 μg/kg, i.v.). The method, then: A male Hartley guinea pig weighing about 450 g was anesthetized with sodium pentobarbital (30 mg/kg,i.p.). The change in transpulmonary pressure was measured by modifying the method of Konzett-Rossler (J. Harvey, et al., J. Pharmacol. Method. 9, 147-155, 1983) under an artificial ventilation. Animal was treated with indomethacin (10 mg/kg,i.v.) and propranolol (1 mg/kg,i.v.). Bronchoconstrictor response was obtained by bolus injection of leukotriene D4 (3 μg/kg,i.v.). Test compounds were suspended in 5% Gum Arabic solution and orally administered 2 hours before the challenge with leukotriene D4.

In another assay the test system is leukotriene. Conditions: oral; P. Sheard et al, 1977; cited from earlier work.

As to `CCCc1c(OCCCCCSc2nc3cc(C(=O)O)ccc3[nH]2)ccc(C(C)=O)c1O` [Example 24], the “Inhibition (%) of LTD4-induced bronchoconstrictor response” value (shortened to “Inhibition (%)”) in the assay with leukotriene D4 (200 mg/kg) turned out to be 57.1%.

In the case of `CCCc1c(OCCCS(=O)(=O)c2nc3ccccc3[nH]2)ccc(C(C)=O)c1O` [Ref. 1, 2-[3-(4-acetyl-3-hydroxy-2-propylphenoxy)propylsulfonyl]-benzimidazole, reference compound], the “Inhibition (%)” value in the assay on leukotriene D4 (400 mg/kg) came to 19.5%.

As to `CCCc1c(OCCCCSc2nc3cc(C(=O)O)ccc3[nH]2)ccc(C(C)=O)c1O` [Example 11], the “Inhibition (%)” value was 27.6% in the assay with leukotriene D4 (25 mg/kg), 73.1% with leukotriene D4 (50 mg/kg) and 84.6% in the assay on leukotriene D4 (100 mg/kg).

On to `CCCc1c(OCCCSc2nc3ccc(C(=O)O)cc3[nH]2)ccc(C(C)=O)c1O` [Example 1, 2-[3-(4-Acetyl-3-hydroxy-2-propylphenoxy)propyl-thio]benzimidazole-5-carboxylic acid], for which the “Inhibition (%)” value in the assay with leukotriene D4 (100 mg/kg) came out at 47.8%; in the assay with leukotriene D4 (200 mg/kg) it was 63.3%.

For `CCCc1c(OCCCC[S+]([O-])c2nc3cc(C(=O)O)ccc3[nH]2)ccc(C(C)=O)c1O` (stereo not drawn) [Example 12], the “Inhibition (%)” value with leukotriene D4 (200 mg/kg) came to 33.3%.

For the molecule `CCCc1c(OCCCS(=O)(=O)c2nc3ccc(C(=O)O)cc3[nH]2)ccc(C(C)=O)c1O` [Example 6, 2-[3-(4-Acetyl-3-hydroxy-2-propylphenoxy)propylsulfonyl]benzimidazole-5-carboxylic acid], in the assay on leukotriene D4 (200 mg/kg), the “Inhibition (%)” value was 40.5%.

Consider `CCCc1c(OCC(O)COc2ccc3c(=O)cc(C(=O)O)oc3c2CCC)ccc(C(C)=O)c1O` (stereo not drawn) [FPL55712], for which the “effect of leukotriene antagonist when administered orally” value in the assay on leukotriene was “no effect”.

As for `CCCc1c(OCCCCc2nc3ccc(C(=O)O)cc3[nH]2)ccc(C(C)=O)c1O` [Example 36, 2-[4-(4-Acetyl-3-hydroxy-2-propylphenoxy)butyl]-benzimidazole-5-carboxylic acid], the “Inhibition (%)” value in the assay on leukotriene D4 (100 mg/kg) is 44.6%; in the assay on leukotriene D4 (200 mg/kg) it was 88.6%.
